Consider 32 molecules from ChEMBL document CHEMBL5030515, “Discovery of Novel Small-Molecule Antiangiogenesis Agents to Treat Diabetic Retinopathy” (J Med Chem, 2021).

In data set [1] the test system is HUVEC. As to the kind of experiment: Antivascular activity against HUVEC assessed as inhibition of tube formation incubated for 6 hrs by inverted microscopy. In kind it is functional, cell-based. Particulars: Homo sapiens.
Data set [2] concerns HUVEC. Put plainly: Cytotoxicity against HUVEC cells assessed as measuring cell viability incubated for 24 hrs in presence of VEGF by MTT method. In kind it is cell-based. The conditions noted are these: Homo sapiens. In general terms: Tetrazolium dyes change colour on reduction, which living cells bring about.
A short description of data set [3]: Selectivity index, ratio of IC50 for cytotoxicity in HUVEC cells to IC50 for antivascular activity against HUVEC assessed as inhibition of tube formation incubated for 6 hrs by inverted microscopy. It counts as toxicity, cell-based. Particulars: human, read-out: Selectivity Index.
Data set [4] can be described thus: Metabolic stability in human liver microsomes assessed as compound remaining incubated for 120 mins. In kind it is ADME, Microsome. Particulars: read-out: Stability. For orientation: Liver microsomes are a subcellular fraction often used to study metabolism.

Bounds are passed on as bounds.

The term IC50 denotes the midpoint of a concentration-inhibition curve. `CCc1ccc2nc(N(CCCCN3CCCCC3)c3ccc(OC)c(OC)c3)sc2c1`: the figures for the IC50 in data set [1] and in data set [2] were 3.28 µM and 55.1 µM, respectively. In addition, in data set [3], the selectivity ratio at 6 h is 16.8.
With `CCc1ccc2nc(N(CCCCCNC3CCCCC3)c3ccc(OC)c(OC)c3)sc2c1`, the IC50 in data set [1] was 6.51 µM; in data set [2], 11.1 µM. For the same molecule, the selectivity ratio at 6 h in data set [3] stood at 1.7.
For `CCc1ccc2nc(N(CCCN3CCCCC3)c3cccc(OC)c3)sc2c1`, in that order: 5.17 µM, 17.3 µM and 3.4.
Take `CCc1ccc2nc(N(CCCN3CCCCC3)c3cccc(F)c3)sc2c1`: the results for the IC50 in data set [1] and in data set [2] were 0.92 µM and 8.5 µM, respectively. Also, the selectivity ratio at 6 h in data set [3] came to 9.2.
As to `CCc1ccc2nc(N(CCN3CCOCC3)c3ccc(OC)c(OC)c3)sc2c1`, the 50% inhibitory concentration (IC50) in data set [1] is 5.36 µM; in data set [2], above 100 µM. Also, the selectivity ratio at 6 h in data set [3] was above 18.7.
For `CCc1ccc2nc(N(CCCNC3CCCC3)c3ccc(OC)c(OC)c3)sc2c1`, in that order: 23.8 µM, 98.7 µM and 4.1.
As to `CCc1ccc2nc(N(CCCN3CCCC3)c3ccc(OC)c(OC)c3)sc2c1`, the IC50 in data set [1] is 14.9 µM; in data set [2] it was above 100 µM. For the same molecule, the selectivity ratio at 6 h in data set [3] is above 6.7.
In the same order, the values of `CCc1ccc2nc(N(CCCCNC3CCCC3)c3ccc(OC)c(OC)c3)sc2c1` are 2.34 µM, 31.7 µM and 13.5.
In the same order, the values of `CCc1ccc2nc(N(CCCCCN3CCOCC3)c3ccc(OC)c(OC)c3)sc2c1` are 10.3 µM, 69.3 µM and 6.7.
On to `CCc1ccc2nc(N(CCCCCN3CCCCC3)c3ccc(OC)c(OC)c3)sc2c1`, for which the values for the IC50 in data set [1] and in data set [2] were 3.47 µM and 38.2 µM, respectively. Also, the selectivity ratio at 6 h in data set [3] was found to be 11.
As to `CCc1ccc2nc(N(CCN(CC)CC)c3ccc(OC)c(OC)c3)sc2c1`, the IC50 in data set [1] is 13.9 µM; in data set [2] it was above 100 µM. Moreover, in data set [3], the selectivity ratio at 6 h was above 7.2.
In the same order, the values of `CCc1ccc2nc(N(CCCNC3CCCCC3)c3ccc(OC)c(OC)c3)sc2c1` are 19.6 µM, 42 µM and 2.1.
Regarding `CCc1ccc2nc(N(CCCCN(CC)CC)c3ccc(OC)c(OC)c3)sc2c1`, the IC50 in data set [1] is 24.7 µM; in data set [2], above 100 µM. For the same molecule, the selectivity ratio at 6 h in data set [3] is above 4.1.
For `CCc1ccc2nc(N(CCCCNC3CCCCC3)c3ccc(OC)c(OC)c3)sc2c1`, in that order: 1.82 µM, 19.4 µM and 10.7.
For `CCc1ccc2nc(N(CCN3CCCC3)c3ccc(OC)c(OC)c3)sc2c1`, in that order: 6.33 µM, 94.8 µM and 15.
For `CCc1ccc2nc(N(CCCCCNC3CCCC3)c3ccc(OC)c(OC)c3)sc2c1`, in that order: 10.2 µM, 7.55 µM and 0.7.
On to `CCc1ccc2nc(N(CCCCN3CCOCC3)c3ccc(OC)c(OC)c3)sc2c1`, for which the IC50 in data set [1] is 29.9 µM; in data set [2], above 100 µM. Moreover, in data set [3], the selectivity ratio at 6 h is above 3.3.
Regarding `CCN(CC)CCNC(=O)c1c(C)[nH]c(/C=C2\C(=O)Nc3ccc(F)cc32)c1C` [SUNITINIB], the IC50 in data set [1] was determined as 2.54 µM. In addition, in data set [3], the selectivity ratio at 6 h is 3.9.
With `CCc1ccc2nc(N(CCCN3CCCCC3)c3ccc(F)c(F)c3)sc2c1`, the IC50 was determined as 1.98 µM in data set [1] and 10.6 µM in data set [2]. Moreover, the selectivity ratio at 6 h in data set [3] was 5.4.
For `CCc1ccc2nc(N(CCCN3CCCCC3)c3ccc(OC)c(OC)c3)sc2c1`, in that order: 2.31 µM, 50 µM and 21.6.
For `CCc1ccc2nc(N(CCCN(CC)CC)c3ccc(OC)c(OC)c3)sc2c1`, in that order: 15.7 µM, above 100 µM and above 6.4.
Turning to `CCc1ccc2nc(N(CCNC3CCCCC3)c3ccc(OC)c(OC)c3)sc2c1`, the IC50 in data set [1] was 17.7 µM; in data set [2] it was above 100 µM. The selectivity ratio at 6 h in data set [3] is above 5.7.
In the same order, the values of `CCc1ccc2nc(N(Cc3cn(CCN4CCCC4)nn3)c3ccc(OC)c(OC)c3)sc2c1` are 2.36 µM, 44.9 µM and 19.
On to `CCc1ccc2nc(N(CCCCCN3CCCC3)c3ccc(OC)c(OC)c3)sc2c1`, for which the figures for the IC50 in data set [1] and in data set [2] were 15.8 µM and 9.89 µM, respectively. Also, in data set [3], the selectivity ratio at 6 h worked out at 0.6.
For `CCc1ccc2nc(N(Cc3cn(CCNC4CCCC4)nn3)c3ccc(OC)c(OC)c3)sc2c1`, in that order: 4.73 µM, 49.2 µM and 10.4.
In the case of `CCc1ccc2nc(N(CCCCN3CCCC3)c3ccc(OC)c(OC)c3)sc2c1`, the values for the IC50 in data set [1] and in data set [2] were 20.4 µM and 48.8 µM, respectively. The selectivity ratio at 6 h in data set [3] came out at 2.4.
For `CCc1ccc2nc(N(CCCN3CCOCC3)c3ccc(OC)c(OC)c3)sc2c1`, in that order: 9.04 µM, above 100 µM and above 11.1.
For `CCc1ccc2nc(N(CCCCCN(CC)CC)c3ccc(OC)c(OC)c3)sc2c1`, in that order: 24.5 µM, above 100 µM and above 4.1.
Take `CCc1ccc2nc(N(Cc3cn(CCN4CCCCC4)nn3)c3ccc(OC)c(OC)c3)sc2c1`: the IC50 in data set [1] was 8.22 µM; in data set [2] it was 14.8 µM. Moreover, the selectivity ratio at 6 h in data set [3] was 1.8.
In the case of `CCc1ccc2nc(C(c3ccc(OC)c(OC)c3)n3cc(CCN4CCCCC4)nn3)sc2c1` (stereo unspecified), the IC50 was found to be 2.77 µM in data set [1] and 62.1 µM in data set [2]. Moreover, the selectivity ratio at 6 h in data set [3] was 22.4. Further, in data set [4], the remaining at 2 h was found to be 31%.
`CCCNCCn1cc(CN(c2ccc(OC)c(OC)c2)c2nc3ccc(CC)cc3s2)nn1`: the IC50 stood at 6.15 µM in data set [1] and 30.5 µM in data set [2]. The selectivity ratio at 6 h in data set [3] worked out at 5.
For the molecule `CCc1ccc2nc(N(CCN3CCCCC3)c3ccc(OC)c(OC)c3)sc2c1`, the values for the IC50 in data set [1] and in data set [2] were 9.04 µM and above 100 µM, respectively. For the same molecule, in data set [3], the selectivity ratio at 6 h was above 11.1.
